The text below walks through data of patent US8273686B2, “Method for combating phytopathogenic fungi” (priority 2006, dated 2012).

Common to all, as to type: cell-based
In experiment [1] the test system is Phaeoacremonium aleophilum. In words: Microtitre test, growth inhibition (optical density 405 nm). Conditions: tested at 125, 31, 8, 2, 0.5 and 0.125 ppm a.i.; 7 and 14 days' incubation at 23° C. On the procedure: (§1) The products were provided as technical quality active ingredient. Stock solutions of the active ingredients were prepared in DMSO at a concentration of 10 000 ppm a.i. All products were tested at 125, 31, 8, 2, 0.5 and 0.125 ppm a.i.; the DMSO concentration was the same in all dilutions.
(§2) Spore suspensions of the test fungi were prepared in a yeast extract, Bacto peptone and glycerol liquid medium.
(§3) Equal volumes of test compound and spore suspension were added, in triplicate, to the wells of 96-well microtitre plates. The optical densities of the wells were measured with the aid of a photometer at 405 nm immediately after preparation.
(§4) Incubation of the plates followed at 23° C. Further optical density measurements were made after 7 and 14 days' incubation. Growth in the treated wells was compared with the growth in the control (=water) wells.

The subject of experiment [2] is Phaeomoniella chlamydospora. The description is as above. Conditions: tested at 125, 31, 8, 2, 0.5 and 0.125 ppm a.i.; 7 and 14 days' incubation at 23° C. On the procedure: as §1, §2, §3, §4
The test system of another experiment is Ganoderma sp. In words: Mycelium growth inhibition on PDA Petri dishes. Particulars: mean of 3 repetitions. How it is done:
(§5) The concentrations of active ingredient added to the culture medium were determined previously by diffusion of the product in agar inoculated for the corresponding species.
(§6) Subsequently the diameters of the pathogen growths (mm) were determined visually until the […] (pathogen in PDA medium without fungicide) fully colonised the Petri dishes.
(§7) Levels of inhibition of mycelium growth for different fungal species in relation to fungicide concentration. The results are expressed as percentages and represent the mean of 3 repetitions

Experiment [3] relates to Cylindrocarpon destructans. In words: Mycelium growth inhibition on PDA Petri dishes. Particulars: mean of 3 repetitions. On the procedure: (§8) Test pathogens were Phaeoacremonium sp., Phaemoniella chlamydospora and Fomitiporella vitis (pathogens associated with the Esca disease) as well as Cylindrocarpon destructans and Botryosphaeria sp. (pathogens frequently isolated from vine wood with Esca symptoms).
as §5, §6, §7

The subject of another experiment is Phaeoacremonium sp. In words: Mycelium growth inhibition on PDA Petri dishes. Conditions: mean of 3 repetitions. How it is done: as §8, §5, §6, §7
In the next experiment the test system is Fomitiporella vitis. In words: Mycelium growth inhibition on PDA Petri dishes. Conditions: mean of 3 repetitions. How it is done:
as §8, §5, §6, §7

The subject of experiment [4] is Phaeomoniella chlamydospora. In words: Mycelium growth inhibition on PDA Petri dishes. Particulars: mean of 3 repetitions. On the procedure: as §8, §5, §6, §7
The subject of a further experiment is Botryosphaeria sp. In words: Mycelium growth inhibition on PDA Petri dishes. Conditions: mean of 3 repetitions. How it is done:
as §8, §5, §6, §7

[5] abbreviates: 0.1 ppm active ingredient (as Comet).
The mark [6] stands for this setting: 1 ppm active ingredient (as Comet).
Where [7] appears, read: 10 ppm active ingredient (as Comet).
[8] abbreviates: 100 ppm active ingredient (as Comet).
Setting [9] is: 1000 ppm active ingredient (as Comet).

For `COC(=O)N(OC)c1ccccc1COc1ccn(-c2ccc(Cl)cc2)n1` [pyraclostrobin], the “inhibition of the growth of Phaeoacremonium aleophilum” value in experiment [1] was “strong to very strong”. For the same compound, the “inhibition of the growth of Phaeomoniella chlamydospora” value in experiment [2] is listed as “strong to very strong”. Also, the Percentage mycelium inhibition was found to be 21.18% in the experiment with Ganoderma sp. (setting [5]); 65.88% in the experiment with Ganoderma sp. (setting [6]); 91.37% in the experiment with Ganoderma sp. (setting [7]); 100.00% in the experiment on Ganoderma sp. (setting [8]); 100.00% with Ganoderma sp. (setting [9]); 33.33% in experiment [3] (setting [5]). Besides, the Percentage mycelium inhibition in experiment [3] (setting [6]) turned out to be 69.61%; in experiment [3] (setting [7]), 86.67%; in experiment [3] (setting [8]), 90.59%; in experiment [3] (setting [9]), 100.00%; in the experiment on Phaeoacremonium sp. (setting [5]), 35.65%; in the experiment with Phaeoacremonium sp. (setting [6]), 61.00%. Besides, the Percentage mycelium inhibition in the experiment with Phaeoacremonium sp. (setting [7]) amounted to 77.27%; with Phaeoacremonium sp. (setting [8]), 88.28%; in the experiment on Phaeoacremonium sp. (setting [9]) it was 100.00%; in the experiment with Fomitiporella vitis (setting [5]), 46.47%; with Fomitiporella vitis (setting [6]), 92.75%; in the experiment with Fomitiporella vitis (setting [7]), 98.62%. In addition, the Percentage mycelium inhibition amounted to 100.00% in the experiment on Fomitiporella vitis (setting [8]); 100.00% in the experiment on Fomitiporella vitis (setting [9]); 64.91% in experiment [4] (setting [5]); 93.57% in experiment [4] (setting [6]); 95.32% in experiment [4] (setting [7]); 96.49% in experiment [4] (setting [8]). The Percentage mycelium inhibition is 100.00% in experiment [4] (setting [9]); 23.14% in the experiment on Botryosphaeria sp. (setting [5]); 48.04% with Botryosphaeria sp. (setting [6]); 66.08% with Botryosphaeria sp. (setting [7]); 88.43% with Botryosphaeria sp. (setting [8]); 100.00% with Botryosphaeria sp. (setting [9]).

`CO/N=C(/C(=O)OC)c1ccccc1COc1ccccc1C` [kresoxim-methyl]: the “inhibition of the growth of Phaeomoniella chlamydospora” value in experiment [2] is “strong to very strong”.
